Results as given in patent publication US10202412B2, “β-D-2′-deoxy-2′-substituted-4′-substituted-2-substituted-N6-substituted-6-aminopurinenucleotides for the treatment of paramyxovirus and orthomyxovirus infections” (Atea Pharmaceuticals, Inc., priority 2016, dated 2019).

Assays:
[1] = system: Respiratory syncytial virus (RSV) type A, strain A2 (ATCC VR-1540); test: dNHBE assay: RSV virus yield reduction (EC90); type: cell-based; settings: RSV (A2) in dNHBE cells, concentration reducing virus yield by 1 log10, mean of at least two experiments
Description: (§1) Differentiated normal human bronchial epithelial (dNHBE) cells were grown on 6 mm mesh disks in transwell inserts to approximately 1.2×10^6 cells/disk and disks were transferred to individual wells of a 6-well plate. 1 mL of proprietary culture medium was added to the basolateral side of the cells and the apical side was exposed to a humidified 95% air/5% CO2 environment. Cells were cultured at 37° C. for one day and then the mucin layer was removed from the apical side of the cells by repeated (3×) washing with 500 μL 30 mM HEPES buffered saline solution and culture medium on the basal side was replenished.
Respiratory syncytial virus (RSV) type A, strain A2 (ATCC VR-1540), previously passaged in MA-104 cells to make working stock cultures, was diluted 1/10 in medium before infection, using a multiplicity of infection (MOI) of ≤0.03 CCID50 per cell.
(§2) Various concentrations of test compounds in medium were applied in duplicate to the apical (140 μL) and basal sides (1 mL) for a 1 hour pre-treatment, followed by addition of 140 μL of virus inoculum to each cell insert on the apical side. The viral inoculum and treatments were removed after 2 hours. Control cells were treated with placebo (culture medium only). Following infection, the apical medium was removed and the basal side was replaced with fresh compound in medium. The cells were maintained at the air-liquid interface, and cell culture medium on the basal side was replaced daily with fresh medium containing test compound. After 4 days, the liquid was removed from the basal side and discarded and virus released into the apical compartment was harvested by the addition of 500 μL of culture medium. The medium was thoroughly mixed, then removed, diluted 1:1 with 40% sucrose and stored at ≤−80° C.
To determine the virus titer from each treated cell culture, MA-104 cells were seeded in 96-well plates and grown overnight (37° C.) to confluence. Samples containing virus were diluted in 10-fold increments in infection medium and 200 μL of each dilution transferred into respective wells of a 96-well microtiter plate. Four microwells were used for each dilution to determine 50% viral endpoints. After 7 days of incubation, each well was scored positive for virus if any cytopathic effect was observed as compared with the uninfected control. The virus dose that was able to infect 50% of the cell cultures (CCID50 per 0.1 mL) was calculated by the Reed-Muench method. This was repeated in duplicate for each test sample, so that values reported are an average of 2 independent CCID5o determinations. Untreated, uninfected cell controls were tested as negative controls. Statistical differences in the titers were evaluated with a one-way analysis of variance (ANOVA) followed by Dunnett's multiple comparisons test compared with the untreated virus controls.
(§3) Concentrations of test compounds that reduced virus yield by 1 log10 (90% effective concentration; EC90) were calculated by regression analysis. The reported EC90 value is the mean of at least two experiments. Potential toxicity of the test compounds was evaluated microscopically.

[2] = system: respiratory syncytial virus A2 (ATCC VR-1540); test: Cytopathic effect assay with RSV A2 in HEp-2 cells; type: cell-based; settings: human respiratory syncytial virus; RSV in HEp-2 cells, CPE inhibition, neutral red
Description: (§4) Test compounds were dissolved in DMSO and then prepared in eight half-log dilutions in MEM medium with 50 μg/mL gentamicin and 2% FBS (MA-104 cells only). Each dilution was added to 5 wells of a 96-well plate with 80-100% confluent cells (either MA-104 cells or HEp-2 cells). Three wells of each dilution were infected with respiratory syncytial virus A2 (ATCC VR-1540) and two wells remained uninfected as toxicity controls. After maximum cytopathic effect (CPE) was observed microscopically in untreated virus control wells, plates were stained with neutral red dye for approximately 2 hours, then supernatant dye was removed and the incorporated dye was extracted in 50:50 Sorensen citrate buffer/ethanol and read on a spectrophotometer. Optical density values were normalized based on cell and virus controls, then the concentration of test compound required to inhibit CPE by 50% (EC50) was calculated by regression analysis. The reported EC50 value is the mean of at least two experiments. The concentration of compound that caused 50% CPE in the absence of virus was similarly calculated to determine cytotoxicity (CC50).

[3] = system: Differentiated normal human bronchial epithelial (dNHBE) cells; test: dNHBE assay: toxicity evaluated microscopically; type: cell-based; parameters: unit not given here
Description: as §1, §2, §3

HEp-2 cells = test: Cytotoxicity in uninfected HEp-2 cells, neutral red; type: cell-based; parameters: unit not given here; settings: absence of virus
Description: as §4

[4] = system: human bone marrow progenitor cells (BFU-E); test: Human bone marrow progenitor cell assay, BFU-E; type: cell-based; settings: Homo sapiens, 336 h; BFU-E-specific culture, 14-day incubation, colony counts; read-out: Bone Marrow Stem Cell IC50 BFU-E
Description: (§5) Select compounds were tested in an in vitro selectivity study with human bone marrow progenitor cells. Fresh human bone marrow progenitor cells (Invitrogen) suspended in either BFU-E or GM-CSF-specific culture medium were added, at 10^5 cells/well, to triplicate serial dilutions of TA in 6-well plates. After 14-day incubations, colony counts were used to determine […] values. BFU-E colonies were confirmed using the benzidene technique. No cytotoxicity was observed from any of the tested compounds.

[5] = system: human bone marrow progenitor cells (CFU-GM); test: Human bone marrow progenitor cell assay, CFU-GM (GM-CSF-specific culture); type: cell-based; settings: Homo sapiens, CFU-GM, 336 h, 14-day incubation, colony counts, read-out: Bone Marrow Stem Cell IC50 CFU-GM
Description: as §5

iPS cardiomyocytes = test: iPS cardiomyocyte assay (XTT viability); type: cell-based; settings: 72 h, 3 days incubation, XTT staining
Description: Select compounds were tested in an in vitro selectivity study with iPS cardiomyocytes. iPS cardiomyocytes (Cellular Dynamics) were seeded in microliter plates at 1.5×10^4 cells per well. After 48-hr incubation, cells were washed and maintenance medium containing 30 serially diluted TA was added in triplicate. After incubating for an additional 3 days, cellviability was measured by staining with XTT and CC50 values were calculated. No cytotoxicity was observed from any of the tested compounds.

[6] = system: respiratory syncytial virus A2 (ATCC VR-1540); test: Cytopathic effect assay with RSV A2 in MA-104 cells; type: cell-based; settings: human respiratory syncytial virus, MA104, CPE inhibition, neutral red
Description: as §4

[7] = Hamster lung triphosphate assay; type: in vivo, Golden Syrian hamsters; settings: analog triphosphate in hamster lung tissue 72 h after oral target dose of 50 mg/kg in PEG400
Description: Male Golden Syrian hamsters (n=3 per test compound) were fasted overnight and then administered test compounds in PEG400 at a target dose of 50 mg/kg by oral gavage. Food was returned 4 h after dosing. At 72 h post dose, animals were anesthetized and a sample of lung tissue was removed and flash-frozen in liquid nitrogen. Approximately 0.5 g of frozen tissue was homogenized using a Polytron homogenizer in 5 volumes homogenization solution (MeOH:50% aqueous KOH:268 mM EDTA, pH 8, 1750:5:750, v/v) in a dry ice/ethanol bath. Supernatants were prepared by centrifugation and analyzed by LC-MS/MS for concentrations of the corresponding analog triphosphates. See Table 7 below for the 72 hour lung triphosphate concentration. After 72 hours, the lung triphosphate concentration following administration of Compound AB and Compound AC was greater than 800 ng/g.

[8] = human respiratory syncytial virus

For `CNc1nc(N)nc2c1ncn2[C@@H]1O[C@](C)(CO)[C@@H](O)[C@H]1F` [Compound C, (2R,3R,4R,5R)-5-(2-Amino-6-(methylamino)-9H-purin-9-yl)-4-fluoro-2-(hydroxymethyl)-2-methyltetrahydrofuran-3-ol], the EC90 [1, 8] was 3.2 µM, the EC50 [2] was > 100 µM and the Visual toxicity [3] was >320. The TC50 (HEp-2 cells) was >100.
With `CNc1nc(N)nc2c1ncn2[C@@H]1O[C@](C)(COP(=O)(N[C@@H](C)C(=O)OC(C)C)Oc2ccccc2)[C@@H](O)[C@H]1F` (stereo partly drawn) [Compound D] the EC90 [1, 8] was 1.7 µM, the EC50 [2] was > 100 µM and the Visual toxicity [3] was >172. For the same molecule, the TC50 (HEp-2 cells) was >100.
With `CNc1nc(N)nc2c1ncn2[C@@H]1O[C@](CCl)(CO[P@@](=O)(N[C@@H](C)C(=O)OC(C)C)Oc2ccccc2)[C@@H](O)[C@H]1F` [AI, (S)-Isopropyl 2-(((S)-(((2R,3R,4R,5R)-5-(2-amino-6-(methylamino)-9H-purin-9-yl)-2-(chloromethyl)-4-fluoro-3-hydroxytetrahydrofuran-2-yl)methoxy)(phenoxy)phosphoryl)amino) propanoate] the EC90 [1, 8] was 0.13 µM, the IC50 [4] was > 100 µM and the IC50 [5] was > 100 µM. The Visual toxicity [3] was >1.6 and the IC50 (iPS cardiomyocytes) was > 100 µM.
With `CNc1nc(F)nc2c1ncn2[C@@H]1O[C@](C)(CO[P@@](=O)(N[C@@H](C)C(=O)OC(C)C)Oc2ccccc2)[C@@H](O)[C@H]1F` [AH, (S)-Isopropyl 2-(((S)-(((2R,3R,4R,5R)-5-(6-(methylamino)-2-fluoro-9H-purin-9-yl)-4-fluoro-3-hydroxy-2-methyltetrahydrofuran-2-yl)methoxy)(phenoxy)phosphoryl)amino) propanoate] the EC90 [1, 8] was 0.12 µM, the IC50 [4] was > 100 µM and the IC50 [5] was > 100 µM. For the same molecule, the Visual toxicity [3] was >1.7 and the IC50 (iPS cardiomyocytes) was > 100 µM.
For `CC[C@]1(COP(=O)(N[C@@H](C)C(=O)OC(C)C)Oc2ccccc2)O[C@@H](n2cnc3c(N(C)C)nc(N)nc32)[C@H](F)[C@@H]1O` (stereo partly drawn) [Compound P, (2S)-Isopropyl 2-(((((2R,3R,4R,5R)-5-(2-amino-6-(dimethylamino)-9H-purin-9-yl)-2-ethyl-4-fluoro-3-hydroxytetrahydrofuran-2-yl)methoxy)(phenoxy)-phosphoryl)amino) propanoate], the EC90 [1, 8] was 88.6 µM, the EC50 [2] was > 100 µM and the Visual toxicity [3] was >143. The EC50 [6] was > 164 µM and the TC50 (HEp-2 cells) was >100.
With `Nc1ccn([C@@H]2O[C@@](CO)(CCl)C(O)[C@H]2F)c(=O)n1` (stereo in doubt) [W] the EC90 [1, 8] was 0.58 µM, the EC50 [2] was 0.6 µM and the Visual toxicity [3] was >338. For the same molecule, the EC50 [6] was 9.6 µM and the TC50 (HEp-2 cells) was >100.
In the case of `CC[C@]1(CO)O[C@@H](n2cnc3c(N(C)C)nc(N)nc32)[C@H](F)[C@@H]1O` [Compound O, (2R,3R,4R,5R)-5-(2-Amino-6-(dimethylamino)-9H-purin-9-yl)-2-ethyl-4-fluoro-2-(hydroxymethyl)tetrahydrofuran-3-ol], the EC90 [1, 8] is reported as > 293 µM, the EC50 [2] is reported as > 100 µM and the Visual toxicity [3] is reported as >293. For the same molecule, the EC50 [6] was > 293 µM and the TC50 (HEp-2 cells) was >100.
For `CC(C)OC(=O)[C@H](C)N[P@](=O)(OC[C@@]1(C)O[C@@H](n2cnc3c(N(C)C)nc(NC(=O)C(C)C)nc32)[C@H](F)[C@@H]1O)Oc1ccccc1` [AO, (S)-Isopropyl 2-(((S)-(((2R,3R,4R,5R)-5-(6-(dimethylamino)-2-isobutyramido-9H-purin-9-yl)-4-fluoro-3-hydroxy-2-methyltetrahydrofuran-2-yl)methoxy)(phenoxy)phosphoryl)amino) propanoate], the EC90 [1] was 0.096 µM, the “72 h Lung TP Concentration” value [7] was 108 ng/g and the Visual toxicity [3] was >1.5.
